This is an account of results in paper PMC3297008, “Novel Marine Phenazines as Potential Cancer Chemopreventive and Anti-Inflammatory Agents” (Marine Drugs, 2012).

Data set [1] relates to NFκB. Also noted: method as in PMID 21105712. As to conditions: earlier work; read-out: IC50, inhibition of NFκB; cited from earlier work.
Data set [2] concerns iNOS. More on the design: method as in PMID 21105712. Particulars: cited from earlier work.
In data set [3] the test system is NFκB. As to the kind of experiment: TNF-α-induced NFκB luciferase reporter assay in stably-transfected human embryonic kidney cells 293. Type of data set: cell-based. As to conditions: human embryonic kidney cells 293 NFκB reporter, TNF-α 2 ng/mL, 6 h; read-out: IC50, inhibition of TNF-α-induced NFκB activity. On the procedure:
Activation of NFκB may promote cell proliferation or prevent cell death through apoptosis. Inhibition of NFκB signaling has potential application for the treatment or prevention of cancer; some inhibitors are known. […] […].
We employed human embryonic kidney cells 293 Panomic (Fremont, CA, USA) for monitoring changes occurring along the NFκB pathway. Stable constructed cells were seeded into sterile 96-well plate at 20 × 10^3 cells per well. Cells maintained in Dulbecco’s modified Eagle’s medium (DMEM) Invitrogen Co. (Carlsbad, CA, USA), supplemented with 10% FBS, 100 units/mL penicillin, 100 µg/mL streptomycin, 2 mM L-glutamine. After 48 h incubation, the medium was replaced and cells were treated with various concentration of test substances dissolved in PBS. TNF-α (Human, Recombinant, E. coli, Calbiochem, Gibbstown, NJ, USA) was used as an activator at a concentration of 2 ng/mL (0.14 nM). The plate was incubated for 6 h. Spent medium was discarded and the cells were washed once with PBS. Cells were lysed using 50 µL (for 96-well plate) Reporter Lysis Buffer from Promega, by incubating for 5 min on a shaker, and stored at −80 °C. The luciferase assay was performed using the Luc assay system from Promega (Madison, WI, USA). The gene product, luciferase enzyme, reacts with luciferase substrate, emitting light which was detected using a luminometer (LUMIstar Galaxy BMG). Data for NFκB constructs are expressed as IC50 values (i.e., concentration required to inhibit TNF-activated NFκB activity by 50%).
On the technique in general: A reporter such as luciferase makes a cellular process visible.

Data set [4] has as its system NO production in LPS-induced RAW 264.7 cells. As to the kind of experiment: LPS-induced NO production in RAW 264.7 cells (Griess reagent). Particulars: Mus musculus.
Description: The amount of nitrite was measured using the Griess reagent to assess the NO production [47, 48]. […] The cells were treated with various concentrations of compounds dissolved in phenol-red free DMEM for 30 min followed by 1 μg/mL of LPS treatment for 24 h. […] The standard curve was created by using known concentrations of sodium nitrite.
For data set [5], the system named is PGE2 production in LPS-induced RAW 264.7 cells. As to the kind of experiment: LPS-induced PGE2 production in RAW 264.7 cells (ELISA). Type of data set: cell-based. Particulars: Mus musculus. On the procedure:
RAW 264.7 cells (1 × 10^5 cells/well, 200 µL) were incubated in a 96-well culture plate in the presence of 5% CO2 at 37 °C for 24 h. The medium was changed to non-colored DMEM containing 5% FBS, and the cells were treated with various concentrations of compounds for 30 min followed by 1 μg/mL of LPS treatment for 24 h. Cell media were collected, diluted 18-times and used for measuring PGE2. Nunc-Immuno 96-well plates were coated with secondary antibody (goat anti-mouse IgG) affinity purified (Jackson Immuno Research Laboratories). Aliquots of cell media were added to the immune plate with primary PGE2 monoclonal antibody (Cayman Chemical) and a tracer PGE2-acetylcholinesterase (Cayman Chemical) and incubated overnight at room temperature in the dark. The next day, the wells were aspirated, washed, 200 µL of Elman’s reagent was added in each well, and incubated 2–5 h at 37 °C out of direct light until control wells reach an optical density 0.4–0.5. Gentle rotating/shaking was used to decrease the time required for color development. Absorbance was read at 412 nm. The PGE2 concentration of each sample was calculated from a PGE2 standard curve (PGE2 from Cayman Chemical). The percent inhibition as a function of the inhibitor concentration was graphed to determine the IC50 values (concentration at which there was 50% inhibition).

For data set [6], the system named is RAW 264.7 cells. As to the kind of experiment: Cell viability (SRB) of RAW 264.7 cells in the NO assay. It is filed as cell-based. Particulars: 50 µM.
Data set [7] has as its system quinone reductase 1 (NQ01, QR1). Also noted: method as in PMID 21187465. Particulars: cell culture; cited from earlier work.
On the set-up of data set [8]: method as in PMID 21187465. Particulars: cited from earlier work.
Data set [9] has as its system glutathione S-transferase (GST). Also noted: method as in PMID 21187465. Particulars: cell culture; cited from earlier work.

Where two headings read alike, the source gives them in different places.

As to `Oc1c(Br)ccc2nc3ccccc3nc12` [2-bromo-1-hydroxyphenazine], the IC50 in [1] was 73 µM. Further, the “inhibition of iNOS activity” value in data set [2] is recorded as “did not inhibit iNOS activity”.
For `Cc1ccc(S(=O)(=O)/C=C/C#N)cc1` [BAY-11-7082, reference compound], in data set [3], the IC50 was found to be 2 ± 0.28 µM.
`Oc1ccc(/C=C/c2cc(O)cc(O)c2)cc1` [Resveratrol, resveratrol, reference compound]: the inhibition at 50 µM worked out at 93 ± 0.8% in data set [4] (RAW264.7, read-out: NO % inhibition (50 µM), LPS-induced RAW 264.7 cells, 50 µM) and 70.2 ± 13.9% in data set [5] (RAW264.7, read-out: PGE2 % inhibition (50 µM)). The IC50 in data set [4] (RAW264.7, read-out: NO IC50) was found to be 31.9 ± 1.8 µM; in data set [5] (RAW264.7, read-out: PGE2 IC50) it was 2.5 ± 0.43 µM; in data set [3], 2.5 ± 0.3 µM. In addition, the “NO % cell survival” value in [6] stood at 86.9 ± 3.9%.
For the molecule `Cc1ccc(S(=O)(=O)N[C@@H](Cc2ccccc2)C(=O)CCl)cc1` [TPCK, N-tosyl-L-phenylalanyl chloromethyl ketone, reference compound], the IC50 in data set [3] was determined as 3.8 µM.
For `Oc1c(Br)cc(Br)c2nc3ccccc3nc12` [2,4-dibromo-1-hydroxyphenazine], the “activation of QR1” value in data set [7] is recorded as “activate”. In addition, in data set [8], the bioavailability result is on record as “poor bioavailability” and the in vivo activity result is reported as “low”. For the same molecule, in data set [9], the “activation of glutathione S-transferase (GST)” value is recorded as “activate”.

The IC50 is the concentration that inhibits the measured activity by half. For orientation: inhibition means the relative decrease from the control value, in per cent.
